From patent US20240376099A1, “COMPOUNDS AND COMPOSITIONS AS INHIBITORS OF ENDOSOMAL TOLL-LIKE RECEPTORS” (Novartis AG, priority 2016, published 2024)

Target: T1, TLR7 (Homo sapiens, UniProt Q9NYK1)
T1 construct: Fresh blood was collected from normal human donors; endogenous in cells; host or cells: human PBMCs from fresh donor blood
T1 sequence (Q9NYK1 27-1049): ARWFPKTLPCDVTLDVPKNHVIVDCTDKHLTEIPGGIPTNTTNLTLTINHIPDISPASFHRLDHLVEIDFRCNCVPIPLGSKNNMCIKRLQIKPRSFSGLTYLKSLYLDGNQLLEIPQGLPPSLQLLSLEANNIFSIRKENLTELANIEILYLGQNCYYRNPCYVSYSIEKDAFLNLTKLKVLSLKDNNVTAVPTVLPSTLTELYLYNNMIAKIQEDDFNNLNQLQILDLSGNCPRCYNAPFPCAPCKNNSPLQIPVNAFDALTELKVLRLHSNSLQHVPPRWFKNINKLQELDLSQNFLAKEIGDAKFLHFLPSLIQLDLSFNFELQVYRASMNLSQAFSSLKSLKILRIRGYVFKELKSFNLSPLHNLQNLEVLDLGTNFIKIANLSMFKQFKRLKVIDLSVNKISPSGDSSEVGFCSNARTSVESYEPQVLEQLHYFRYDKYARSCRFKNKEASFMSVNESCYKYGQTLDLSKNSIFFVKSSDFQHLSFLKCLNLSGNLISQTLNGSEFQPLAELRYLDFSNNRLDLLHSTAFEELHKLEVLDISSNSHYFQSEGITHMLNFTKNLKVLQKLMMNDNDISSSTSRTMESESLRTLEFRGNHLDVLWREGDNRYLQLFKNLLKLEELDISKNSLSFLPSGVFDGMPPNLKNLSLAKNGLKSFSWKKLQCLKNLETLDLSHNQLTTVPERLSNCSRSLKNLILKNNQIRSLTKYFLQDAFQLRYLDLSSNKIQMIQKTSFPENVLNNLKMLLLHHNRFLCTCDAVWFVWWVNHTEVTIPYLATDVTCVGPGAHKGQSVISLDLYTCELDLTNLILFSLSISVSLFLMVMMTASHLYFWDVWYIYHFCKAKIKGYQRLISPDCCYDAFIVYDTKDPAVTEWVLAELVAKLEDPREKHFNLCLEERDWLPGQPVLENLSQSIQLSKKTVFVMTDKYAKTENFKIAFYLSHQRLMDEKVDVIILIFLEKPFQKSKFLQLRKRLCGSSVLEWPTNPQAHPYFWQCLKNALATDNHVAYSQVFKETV
Experiment: huPBMC TLR7 Antagonist IFNα Assay
Format: cell-based
Conditions: human PBMCs stimulated with ssRNA40 10 μg/mL (DOTAP), 14-16 hrs; IFNα2b AlphaLISA read-out
Procedure, shortened: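 Human PBMCs from fresh donor blood (150,000 cells/well) stimulated 14–16 h at 37 °C with DOTAP-complexed ssRNA40 (final 1 μg/ml for TLR8, 10 μg/mL for TLR7) or ODN2216 (final 0.3 μM, TLR9), 0.25% DMSO, ten-point 1/3 compound dilutions. Supernatant IL-6 read by HTRF (TLR8); IFNα by IFNα2b AlphaLISA (TLR7/TLR9).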

Compound | IC50 [nM]
CNCCC(=O)NC12CCC(Cn3nc(C)c4c3CCN(c3cc(C)nc5c3cnn5C)C4)(CC1)CC2 [compound 142, N-(4-((5-(1,6-dimethyl-1H-pyrazolo[3,4-b]pyridin-4-yl)-3-methyl-4,5,6,7-tetrahydro-1H-pyrazolo[4,3-c]pyridin-1-yl)methyl)bicyclo[2.2.2]octan-1-yl)-3-(methylamino)propanamide] | 47
Cc1nn(CC23CCC(NC4CCC4)(CC2)CC3)c2c1CN(c1ccnc(-c3ccccc3)c1)CC2 [compound 144, N-cyclobutyl-4-((3-methyl-5-(2-phenylpyridin-4-yl)-4,5,6,7-tetrahydro-1H-pyrazolo[4,3-c]pyridin-1-yl)methyl)bicyclo[2.2.2]octan-1-amine] | 73
Cc1cc(N2CCc3c(c(C)nn3CC34CCC(NC(=O)OC(C)(C)C)(CC3)C4)C2)c2cnn(C)c2n1 [compound 148, tert-butyl (4-((5-(1,6-dimethyl-1H-pyrazolo[3,4-b]pyridin-4-yl)-3-methyl-4,5,6,7-tetrahydro-1H-pyrazolo[4,3-c]pyridin-1-yl)methyl)bicyclo[2.2.1]heptan-1-yl)carbamate] | 54

Now those with a lower IC50, led by results:

IC50 [nM] | Compound
32 | CCn1ncc2c(N3CCc4c(c(C)nn4CC45CCC(NC(=O)[C@@H]6COCCN6)(CC4)CC5)C3)cc(C)nc21 [compound 141, (S)-N-(4-((5-(1-ethyl-6-methyl-1H-pyrazolo[3,4-b]pyridin-4-yl)-3-methyl-4,5,6,7-tetrahydro-1H-pyrazolo[4,3-c]pyridin-1-yl)methyl)bicyclo[2.2.2]octan-1-yl)morpholine-3-carboxamide]
41 | Cc1cc(N2CCc3c(c(C)nn3CC34CCC(NC5CCC5)(CC3)CO4)C2)c2cnn(C)c2n1 [compound 143, N-cyclobutyl-1-((5-(1,6-dimethyl-1H-pyrazolo[3,4-b]pyridin-4-yl)-3-methyl-4,5,6,7-tetrahydro-1H-pyrazolo[4,3-c]pyridin-1-yl)methyl)-2-oxabicyclo[2.2.2]octan-4-amine]
